The target of data set [1] is T1, Full length wild-type cereblon CRBN (Homo sapiens, UniProt Q96SW2).
T1 construct: Full length wild-type cereblon CRBN (80.0 nM, 10 μL) was incubated in assay buffer
Nature of the data set: Fluorescence polarization (FP) assay indicating cereblon binding. As for the experimental part:
Compound activity was monitored in a fluorescence polarization (FP) homogeneous assay using 1-[5-({2-[2-(2-{[2-(2,6-dioxopiperidin-3-yl)-1,3-dioxo-2,3-dihydro-1H-isoindol-4-yl]oxy}acetamido)ethoxy]ethyl}carbamoyl)pentyl]-3,3-dimethyl-2-[(1E,3E)-5-[(2E)-1,3,3-trimethyl-5-sulfo-2,3-dihydro-1H-indol-2-ylidene]penta-1,3-dien-1-yl]-3H-indol-1-ium-5-sulfonate as a fluorescent probe. Unless otherwise stated, all reagents were purchased from Sigma Aldrich. Enzymatic reactions were conducted in Perkin-Elmer Black 384 well ProxiPlate Plus (catalogue no. 6008269) in 10 μL total volume. Full length wild-type cereblon CRBN (80.0 nM, 10 μL) was incubated in assay buffer containing 20 mM HEPES (pH 8.0), […], 0.5 mM TCEP and 0.05% Tween 20 in the presence or absence of compound (300 nL). Inhibitors were stored as 10 mM DMSO stocks in an inert environment (low humidity, dark, low oxygen, room temperature) using the Storage Pod System. Compounds and DMSO were dispensed using the Echo E5XX (Labcyte Inc. USA) to give concentrations from 300 to 0.937 or 3000 to 9.3 nM in a 12 data point curve. […] Following incubation at room temperature for 30 min, the assay was initiated by dispensing the probe to a final concentration of 5 nM (2.5 nL of a 20 μM stock) using the Echo E5XX. FP was measured after a period of 12 hours using a Pherastar plate reader (BMG Labtech, Germany) exciting at 590 nm and measuring the amount of parallel and perpendicular light at 675 nm. The FP signal was subsequently normalized to the no-compound control (i.e., DMSO). Analysis and IC50 values were derived using Dotmatics (Dotmatics UK) software.
On the technique in general: In fluorescence polarisation assays a small probe gives low polarisation when free and higher when bound to something large.

Data set [2] concerns the target T2, GSPT1 (Homo sapiens, UniProt P15170+Q96SW2).
T2 construct: CAL-51 cells were purchased from DSMZ (cat. Number ACC302); host or cells: CAL-51 cells
Kind of data set: GSPT1 degradation immunofluorescence assay in CAL-51 cells. The data set is classed as cell-based. As to conditions: 6 hours treatment. As for the experimental part: CAL-51 cells were purchased from DSMZ (cat. Number ACC302), sub-cultured in 90% Dulbecco's MEM (4.5 g/L glucose, Gibco 11965)+10% heat inactivated FBS (BioConcept, 2-01F1361) and incubated at 37° C., 5% CO2. For the assay, imaging microtiterplate Cell Carrier 96 Ultra (Perkin Elmer 6055302) were pre-coated with Fibronectin (Sigma F085, 30 μl at 0.2 μg/ml) in PBS (100p, Gibco 14190) for 45 min at room temperature, rinsed with PBS and CAL-51 cells (30K cells/well) were plated and let to adhere overnight. Cells were treated with compounds typically using a serial dilution ranging from 30 μM to 0.1 nM for 6 hours. Compounds were stored at 10 mM DMSO stocks. Vehicle (DMSO), positive (CC-885, 10 μM) and rescue controls (positive control plus 0.2 μM bortezomib) were also included at this stage. Cells were subsequently rinsed with PBS and fixed in 10% Formalin solution (50p, Sigma HT5011)) for 20 mins at room temperature. Following three consecutive PBS washes (100 μl), cells were permeabilized in 0.1% Triton X-100 in PBS (Sigma 93443, 50 μl) for 15 mins at room temperature. Following three further PBS washes, 50 μl blocking buffer (1% BSA, Sigma A4503, in PBS) was added for 45 min for signal-to-noise reduction. Primary antibody (human GSPT1, Sigma HPA052488) was diluted in blocking buffer (dil.1/300, 35 μl/well) and incubated with the cells overnight at 4° C. After three PBS washes, Alexa-fluor 488 coupled secondary antibodies (Invitrogen, A32731, dil. 1/1000), Alexa-fluor 647-Phalloïdin (Invitrogen, A22287, dil. 1/200) and DAPI (Thermo, #62248, dil.1/1000) were diluted in blocking buffer and incubated with the samples for 2 hours at room temperature. After three final PBS washes, samples were conserved in 100 μl PBS in the dark, until measurement. Image acquisition was performed on the Operetta High-Content Imager (Perkin-Elmer). Fluorescence intensity of Alexa-Fluor 488 (GSPT1), Alexa-Fluor 647 (Actin) and DAPI (Nucleus) were measured. For the determination of GSPT1 DC50 values, a custom algorithm implemented in the PerkinElmer image analysis software Harmony-Acapella@ was developed. After user-defined setting of adjustment parameters, the analysis was run identically without human intervention for all image fields. DAPI staining of the nuclei was used to determine the location of cells using standard nuclei detection modules. Segmentation artifacts were removed by threshold-based filters for area, roundness and intensity. The outline of the cells was determined analogously from the sum of the normalized, smoothed DAPI and Actin channel, starting from each nucleus.
The Alexa-Fluor 488 (GSPT1) signal intensity in each cell was finally measured, in order to obtain a Mean intensity per cell. GSPT1 degradation (DC50) was calculated after normalization to controls and data import in CDD vault Database, using non-linear regression.

Data set [3] has as its system G542X cystic fibrosis transmembrane conductance regulator (CFTR) nonsense mutation. Nature of the data set: HaloTag G542X 5×5 NanoLuc reporter assay (CFTR readthrough) in HBE16 cells. It is filed as cell-based, human. The procedure:
FIG. 3A, FIG. 3B, and FIG. 3C show the effect of a representative compound of the disclosure on CFTR readthrough: Readthrough of the common G542X cystic fibrosis transmembrane conductance regulator (CFTR) nonsense mutation was carried out in the immortalized human bronchial epithelial cells HBE16. A HaloTag G542X 5×5 NanoLuc reporter assay was established in that cell line containing the CFTR readthrough cassette bearing the G542X codon as well as 5 codons upstream and downstream from the human CFTR sequence. […] The total protein assay (C) indicates no significant decrease of HBE16 cell viability following treated with the representative compound of the disclosure alone or in combination with G418 (y-axis left indicating protein μg/μL, and y-axis right indicating %).
The total protein assay (C) indicates no significant decrease of HBE16 cell viability following treated with the representative compound of the disclosure alone or in combination with ELX-02 (y-axis left indicating protein μg/μL, and y-axis right indicating %).
For orientation: A reporter such as luciferase makes a cellular process visible.

Data set [4] relates to HBE16 cells. Kind of data set: Killing activity (EC10) in HBE16 cells after 72 hr. The data set is classed as cell-based, human.
Where [5] appears, read: compounds 1 to 165, read-out: Activity for GSPT1 degradation (DC50 code).
Setting [6] is: compounds 201 to 307, read-out: Activity for GSPT1 degradation (DC50 code).

Read-outs that look alike come from different tables or passages of the source. Some results are limits rather than exact numbers.

T2 sequence (P15170 whole entry): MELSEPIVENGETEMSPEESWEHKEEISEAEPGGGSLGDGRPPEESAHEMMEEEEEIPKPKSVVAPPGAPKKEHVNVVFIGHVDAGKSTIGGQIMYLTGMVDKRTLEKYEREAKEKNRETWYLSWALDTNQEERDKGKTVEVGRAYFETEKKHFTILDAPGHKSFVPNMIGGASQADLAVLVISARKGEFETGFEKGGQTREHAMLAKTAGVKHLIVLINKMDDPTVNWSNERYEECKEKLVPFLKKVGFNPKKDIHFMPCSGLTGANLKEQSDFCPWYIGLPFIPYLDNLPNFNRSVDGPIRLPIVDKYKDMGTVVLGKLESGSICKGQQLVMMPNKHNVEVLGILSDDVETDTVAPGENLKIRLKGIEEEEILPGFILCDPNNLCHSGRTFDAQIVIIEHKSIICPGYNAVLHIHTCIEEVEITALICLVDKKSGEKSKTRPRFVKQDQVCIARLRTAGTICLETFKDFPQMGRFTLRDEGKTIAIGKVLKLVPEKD
T2 sequence (Q96SW2 whole entry): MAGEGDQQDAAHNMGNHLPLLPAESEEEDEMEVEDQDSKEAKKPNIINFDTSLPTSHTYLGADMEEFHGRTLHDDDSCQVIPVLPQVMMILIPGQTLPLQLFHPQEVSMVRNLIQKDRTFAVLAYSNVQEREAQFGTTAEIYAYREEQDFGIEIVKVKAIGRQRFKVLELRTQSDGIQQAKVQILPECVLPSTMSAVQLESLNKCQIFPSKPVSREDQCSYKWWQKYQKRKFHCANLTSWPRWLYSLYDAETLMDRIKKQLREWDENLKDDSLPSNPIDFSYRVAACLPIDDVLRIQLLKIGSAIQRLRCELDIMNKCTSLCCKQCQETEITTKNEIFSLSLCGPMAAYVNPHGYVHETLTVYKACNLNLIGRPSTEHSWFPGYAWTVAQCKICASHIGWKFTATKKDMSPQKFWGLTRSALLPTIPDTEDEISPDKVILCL
T2 sequence (Q16531 whole entry partner): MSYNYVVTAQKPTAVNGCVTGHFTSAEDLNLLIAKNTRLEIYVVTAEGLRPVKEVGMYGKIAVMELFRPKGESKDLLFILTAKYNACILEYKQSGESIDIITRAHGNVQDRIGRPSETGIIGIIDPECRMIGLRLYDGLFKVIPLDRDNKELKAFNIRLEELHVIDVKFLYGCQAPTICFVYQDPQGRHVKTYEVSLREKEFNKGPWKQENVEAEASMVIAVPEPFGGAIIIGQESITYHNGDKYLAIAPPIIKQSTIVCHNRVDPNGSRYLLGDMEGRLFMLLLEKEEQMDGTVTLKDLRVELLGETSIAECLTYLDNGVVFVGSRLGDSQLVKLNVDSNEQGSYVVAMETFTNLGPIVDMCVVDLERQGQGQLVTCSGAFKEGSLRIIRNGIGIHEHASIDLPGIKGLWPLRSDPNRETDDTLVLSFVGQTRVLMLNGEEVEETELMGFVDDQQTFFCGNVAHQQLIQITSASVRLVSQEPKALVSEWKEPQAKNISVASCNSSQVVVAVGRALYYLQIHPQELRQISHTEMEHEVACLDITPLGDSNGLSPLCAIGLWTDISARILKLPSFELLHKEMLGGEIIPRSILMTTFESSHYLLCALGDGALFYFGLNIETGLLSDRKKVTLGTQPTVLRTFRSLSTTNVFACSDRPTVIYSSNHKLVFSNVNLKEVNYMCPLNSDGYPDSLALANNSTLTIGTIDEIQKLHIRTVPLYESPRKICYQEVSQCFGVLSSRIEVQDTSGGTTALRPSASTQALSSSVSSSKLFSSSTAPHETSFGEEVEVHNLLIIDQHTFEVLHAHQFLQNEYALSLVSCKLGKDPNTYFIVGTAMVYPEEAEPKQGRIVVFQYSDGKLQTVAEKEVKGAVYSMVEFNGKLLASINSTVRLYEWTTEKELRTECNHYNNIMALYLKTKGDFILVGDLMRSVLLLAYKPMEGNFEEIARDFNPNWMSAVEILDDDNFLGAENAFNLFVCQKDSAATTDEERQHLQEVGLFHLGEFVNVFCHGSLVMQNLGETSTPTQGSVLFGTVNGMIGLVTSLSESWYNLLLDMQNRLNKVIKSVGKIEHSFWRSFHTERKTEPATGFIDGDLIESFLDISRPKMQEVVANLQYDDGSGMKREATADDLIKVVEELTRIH
T1 sequence (Q96SW2 whole entry): as the sequence (Q96SW2 whole entry) above

What is called IC50 is the point on the concentration scale where inhibition reaches its midpoint. A lower IC50 goes with higher potency. For orientation: DC50 means the concentration giving 50% degradation. Compound `COc1ccc(CCNC(=O)NCc2ccc3c(c2)C(=O)N(C2CCC(=O)NC2=O)C3)cc1` (stereo not drawn) [Compound 51] returned an IC50 in data set [1] of less than 1100 nM. In addition, in data set [2] (setting [5]), the DC50 is greater than 300 nM.
For `COc1ccccc1CNC(=O)NCc1ccc2c(c1)C(=O)N(C1CCC(=O)NC1=O)C2` (stereo not drawn) [Compound 60] the same measures were less than 1100 nM and greater than 300 nM.
Take `Cc1c(Cl)cc(NC(=O)NCc2ccc3c(c2)C(=O)N(C2CCC(=O)NC2=O)C3)cc1CN1CC2CCC(C1)O2` (stereo not drawn) [Compound 140]: the concentration for half-maximal inhibition (IC50) in data set [1] was less than 1100 nM. For the same compound, the DC50 in data set [2] (setting [5]) was no more than 100 nM.
In turn, `Cc1c(Cl)cc(NC(=O)NCc2ccc3c(c2)C(=O)N(C2CCC(=O)NC2=O)C3)cc1CN1CCN2CCC1C2` (stereo not drawn) [Compound 154] returned an IC50 in data set [1] of less than 1100 nM. Also, in data set [2] (setting [5]), the DC50 was greater than 300 nM.
For `Cc1c(Cl)cc(NC(=O)NCc2ccc3c(c2)C(=O)N(C2CCC(=O)NC2=O)C3)cc1CC1COCCN1C` (stereo not drawn) [Compound 160], in that order: less than 1100 nM and no more than 100 nM.
For the compound `Cc1c(Cl)cc(NC(=O)OCc2ccc3c(c2)C(=O)N(C2CCC(=O)NC2=O)C3)cc1CN1CCOCC1` (stereo not drawn) [Compound 202], the IC50 in data set [1] was less than 1100 nM. Further, the DC50 in data set [2] (setting [6]) was less than 30 nM.
For `O=C1CCC(N2Cc3ccc(COC(=O)Nc4cc(CN5CCOCC5)cc(OC(F)(F)F)c4)cc3C2=O)C(=O)N1` (stereo not drawn) [Compound 204], in that order: less than 1100 nM and less than 30 nM.
Compound `Cc1ncc(NC(=O)OCc2ccc3c(c2)C(=O)N(C2CCC(=O)NC2=O)C3)cc1Cl` (stereo not drawn) [Compound 206] registered an IC50 in data set [1] of less than 1100 nM. Moreover, the DC50 in data set [2] (setting [6]) is less than 30 nM.
For the compound `Cc1cc(C)cc(NC(=O)OCc2ccc3c(c2)C(=O)N(C2CCC(=O)NC2=O)C3)c1` (stereo not drawn) [Compound 208], the IC50 in data set [1] was less than 1100 nM. The DC50 in data set [2] (setting [6]) is less than 30 nM.
For `Cc1c(Cl)cc(NC(=O)OCc2ccc3c(c2)C(=O)N(C2CCC(=O)NC2=O)C3)cc1CN1CC2CC1CO2` (stereo not drawn) [Compound 213] the same measures were less than 1100 nM and less than 30 nM.
For `O=C1CCC(N2Cc3ccc(COC(=O)Nc4ccc(N5CCCCC5)nc4)cc3C2=O)C(=O)N1` (stereo not drawn) [Compound 215], in that order: less than 1100 nM and less than 30 nM.
For `Cc1ccc(NC(=O)OCc2ccc3c(c2)C(=O)N(C2CCC(=O)NC2=O)C3)cc1OC(F)F` (stereo not drawn) [Compound 224] the same measures were less than 1100 nM and less than 30 nM.
In data set [1], `Cc1c(CN2CCOCC2)cc(NC(=O)OCc2ccc3c(c2)C(=O)N(C2CCC(=O)NC2=O)C3)cc1OC(F)F` (stereo not drawn) [Compound 225] came in with an IC50 of less than 1100 nM. The DC50 in data set [2] (setting [6]) is less than 30 nM.
For `O=C1CCC(N2Cc3ccc(COC(=O)Nc4ccc(C5CC5)cc4)cc3C2=O)C(=O)N1` (stereo not drawn) [Compound 239], in that order: less than 1100 nM and less than 30 nM.
With `Cc1c(F)cc(NC(=O)OCc2ccc3c(c2)C(=O)N(C2CCC(=O)NC2=O)C3)cc1CN1CCOCC1` (stereo not drawn) [Compound 241], in data set [1], the IC50 is less than 1100 nM. In data set [2] (setting [6]), the 50% degradation concentration (DC50) is less than 30 nM.
In data set [1], `CCc1cc(NC(=O)OCc2ccc3c(c2)C(=O)N(C2CCC(=O)NC2=O)C3)cnc1C` (stereo not drawn) [Compound 255] came in with an IC50 of less than 1100 nM. The DC50 in data set [2] (setting [6]) was less than 30 nM.
For `CC1(c2ccc(NC(=O)OCc3ccc4c(c3)C(=O)N(C3CCC(=O)NC3=O)C4)cc2)CC1` (stereo not drawn) [Compound 258] the same measures were less than 1100 nM and less than 30 nM.
For `Cc1c(Cl)cc(NC(=O)OCc2ccc3c(c2)C(=O)N(C2CCC(=O)NC2=O)C3)cc1OC1CCN(C)C1` (stereo not drawn) [Compound 268], in that order: less than 1100 nM and less than 30 nM.
For `CC1CCCCN1c1ccc(NC(=O)OCc2ccc3c(c2)C(=O)N(C2CCC(=O)NC2=O)C3)cn1` (stereo not drawn) [Compound 277] the same measures were less than 1100 nM and less than 30 nM.
For `CC1(C)COc2cc(NC(=O)OCc3ccc4c(c3)C(=O)N(C3CCC(=O)NC3=O)C4)ccc21` (stereo not drawn) [Compound 283], the IC50 in data set [1] was less than 1100 nM. The DC50 in data set [2] (setting [6]) was less than 30 nM.
Regarding `Cc1ccccc1-c1ccc(NC(=O)OCc2ccc3c(c2)C(=O)N(C2CCC(=O)NC2=O)C3)cn1` (stereo not drawn) [Compound 286], in data set [1], the IC50 was less than 1100 nM. In data set [2] (setting [6]), the DC50 was less than 30 nM.
For `COc1ccccc1-c1ccc(NC(=O)OCc2ccc3c(c2)C(=O)N(C2CCC(=O)NC2=O)C3)cn1` (stereo not drawn) [Compound 287], in that order: less than 1100 nM and less than 30 nM.
The compound `Cc1cc(NC(=O)OCc2ccc3c(c2)C(=O)N(C2CCC(=O)NC2=O)C3)cnc1-c1ccccc1` (stereo not drawn) [Compound 288] came in with an IC50 in data set [1] of less than 1100 nM. For the same compound, the DC50 in data set [2] (setting [6]) was less than 30 nM.
In turn, `Cc1ncc(NC(=O)OCc2ccc3c(c2)C(=O)N(C2CCC(=O)NC2=O)C3)cc1OC(F)(F)F` (stereo not drawn) [Compound 291] gave an IC50 in data set [1] of less than 1100 nM. Besides, the DC50 in data set [2] (setting [6]) is less than 30 nM.
With `O=C1CCC(N2Cc3ccc(COC(=O)Nc4ccc5c(c4)OCCC5)cc3C2=O)C(=O)N1` (stereo not drawn) [Compound 292], in data set [1], the IC50 is less than 1100 nM. The DC50 in data set [2] (setting [6]) is less than 30 nM.
On to `O=C1CCC(N2Cc3ccc(COC(=O)Nc4cc(OCCN5CCOCC5)cc(OC(F)(F)F)c4)cc3C2=O)C(=O)N1` (stereo not drawn) [Compound 306], for which, in data set [1], the IC50 was less than 1100 nM.
What is called EC50 is the concentration giving half of the maximal effect. For `C[C@@H](N)[C@H]1O[C@@H](O[C@@H]2[C@@H](O)[C@H](N)C[C@H](N)[C@H]2O[C@H]2O[C@H]([C@@H](C)O)[C@@H](O)[C@H](O)[C@H]2N)[C@H](O)[C@@H]1O` [ELX-02], the EC50 in data set [3] is 250000 nM. The “EC10 (readthrough activity, NanoLuc)” value in data set [3] (concentration used in combination) is 85000 nM. In addition, the “EC10 (concentration resulting in 10% killing activity)” value in data set [4] was determined as 85000 nM.

The record behind these values is patent US20240216355A1, “PHARMACEUTICAL COMPOSITIONS FOR USE IN THE PREVENTION AND TREATMENT OF A DISEASE OR DISORDER CAUSED BY OR ASSOCIATED WITH ONE OR MORE PREMATURE TERMINATION CODONS” (Monte Rosa Therapeutics, Inc., priority 2021, published 2024).
